Patent US20020026053A1, “Novel 3-(substituted) -2- indolinones compounds and use thereof as inhibitors of protein kinase activity” (priority 1997, published 2002)

How the values were obtained:
FLK-1 receptor = assay: FLK-1 Assay (cellular/catalytic ELISA, VEGF-stimulated phosphotyrosine); type: cell-based; parameters: concentration or dose not given beside the values; conditions: protocol P.110
Outline: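 NIH3T3 C7#3 cells engineered to express Flk-1 were serum-starved overnight (0.1% FBS), then exposed to compound for 2 h at 37 °C (final dilution 1:200, 0.5% DMSO) before VEGF stimulation. Lysates captured on anti-FLK-1 antiserum plates; phosphotyrosine detected by UB40 antibody/POD-ABTS ELISA versus untreated controls.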

PDGF-R = PDGF-R Assay (cellular ELISA, U1242 cells); type: cell-based; parameters: concentration or dose not given beside the values; conditions: protocol P.119
Outline: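 U1242 cells seeded in 0.5% serum, serum-starved, then exposed to compound for 2 hr at 37°C before 5–10 min ligand stimulation and lysis in HNTG. Lysate captured on receptor-antibody-coated plates; phosphotyrosine detected with polyclonal anti-pTyr, goat anti-rabbit IgG and ABTS/H2O2, A410 (ref 630 nm), versus untreated cells.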

Row | SMILES | Flk Kinase % Inhibition (P.110) (FLK-1 receptor) [%] | PDGF Kinase % Inhibition (P.119) (PDGF-R) [%]
1 | O=C1Nc2ccc(S(=O)(=O)N3CCOCC3)cc2C1=Cc1cc(F)ccc1F [10737/F04] | 12.2 | 3.8
2 | O=C1Nc2ccc(S(=O)(=O)N3CCOCC3)cc2C1=Cc1cccc(F)c1F [10737/F05] | 18.4 | 1.0
3 | COc1ccc(C=C2C(=O)Nc3ccc(S(=O)(=O)N4CCOCC4)cc32)cc1F [10737/F06] | 12.3 | 11.3
4 | Cc1ccc(C)c(C=C2C(=O)Nc3ccc(S(=O)(=O)N4CCOCC4)cc32)c1 [10737/F07] | 19.1 | 12.9
5 | O=C1Nc2ccc(S(=O)(=O)N3CCOCC3)cc2C1=Cc1ccc2ccccc2c1 [10737/F08] | 20.7 | 9.8
6 | O=C1Nc2ccc(S(=O)(=O)N3CCOCC3)cc2C1=Cc1ccc(Oc2ccccc2)cc1 [10737/F09] | 15.4 | 9.8
7 | CC(C)(C)c1ccc(Oc2cccc(C=C3C(=O)Nc4ccc(S(=O)(=O)N5CCOCC5)cc43)c2)cc1 [10737/F10] | 26.1 | 11.0
8 | O=C1Nc2ccc(S(=O)(=O)N3CCOCC3)cc2C1=Cc1cccc(Oc2cccc(C(F)(F)F)c2)c1 [10737/F11] | 31.6 | 16.5
9 | CCOc1ccc(C=C2C(=O)Nc3ccc(CCCl)cc32)cc1 [10737/G02] | 8.7 | −5.8
10 | Cc1ccc(C=C2C(=O)Nc3ccc(CCCl)cc32)c(C)c1 [10737/G03] | 13.6 | 21.7
11 | O=C1Nc2ccc(CCCl)cc2C1=Cc1cc(F)ccc1F [10737/G04] | 12.1 | 12.1
12 | O=C1Nc2ccc(CCCl)cc2C1=Cc1cccc(F)c1F [10737/G05] | 16.4 | 16.1
13 | COc1ccc(C=C2C(=O)Nc3ccc(CCCl)cc32)cc1F [10737/G06] | 12.8 | −10.2
14 | Cc1ccc(C)c(C=C2C(=O)Nc3ccc(CCCl)cc32)c1 [10737/G07] | 20.3 | 24.1
15 | O=C1Nc2ccc(CCCl)cc2C1=Cc1ccc2ccccc2c1 [10737/G08] | 16.4 | 13.7
16 | O=C1Nc2ccc(CCCl)cc2C1=Cc1ccc(Oc2ccccc2)cc1 [10737/G09] | 15.2 | 8.2
17 | CC(C)(C)c1ccc(Oc2cccc(C=C3C(=O)Nc4ccc(CCCl)cc43)c2)cc1 [10737/G10] | 13.3 | −0.2
18 | O=C1Nc2ccc(CCCl)cc2C1=Cc1cccc(Oc2cccc(C(F)(F)F)c2)c1 [10737/G11] | 11.7 | 5.0
19 | CCOc1ccc(C=C2C(=O)Nc3c(Br)cc(Br)c(C)c32)cc1 [10737/H02] | 3.1 | −18.1
20 | Cc1ccc(C=C2C(=O)Nc3c(Br)cc(Br)c(C)c32)c(C)c1 [10737/H03] | 3.2 | −21.3
21 | Cc1c(Br)cc(Br)c2c1C(=Cc1cc(F)ccc1F)C(=O)N2 [10737/H04] | 11.6 | −21.3
22 | Cc1c(Br)cc(Br)c2c1C(=Cc1cccc(F)c1F)C(=O)N2 [10737/H05] | 9.9 | −6.2
23 | COc1ccc(C=C2C(=O)Nc3c(Br)cc(Br)c(C)c32)cc1F [10737/H06] | 5.8 | −1.8
